# Data taken from US5514648A, “Fungicidally active compounds” (priority 1990, dated 1996).
# Where a SMILES comes first, the peptide text is derived from it. [ ]: non-standard residue; d: D form. NMeI = CC[C@H](C)[C@H](NC)C(=O)O; NMeD = CN[C@@H](CC(=O)O)C(=O)O; NMeV = CN[C@H](C(=O)O)C(C)C; Pip = O=C(O)[C@@H]1CCCCN1; dLac = C[C@@H](O)C(=O)O
# Key:
# B. cinerea = test: Fungicidal activity, mycelial growth on potato dextrose agar; format: cell-based, Botrytis cinerea; conditions: in as low concentrations as 0.0016 μg/ml, 3 to 6 days
# Description: (§1) Experiments were carried out to determine the potency of the compound of formula IV towards various fungi. The active ingredient was dissolved in 60% ethanol and added to cooled potato dextrose agar to give final concentrations of 25, 5, 1, 0.2, 0.04 and 0.0016 μg a.i. per ml agar, respectively. Control dishes contained no active ingredient.
# (§2) 10 ml Agar was poured into 9 cm petri dishes and each concentration was inoculated with actively growing mycelium of the fungal isolates tested for. The dishes were incubated at the optimum temperature for growth of the isolates for 3 to 6 days after which time the growth was measured in mm and compared to the controls.
# (§3) The test isolates covered a broad range of fungi within the Oomycetes, the Ascomycetes, the Basidiornycetes, the Deuterornycetes, and the Zygomycetes.
# Botrytis cinerea [1] = test: Activity against Botrytis cinerea on tomato plants; format: in vivo; conditions: liquid suspension 0.035 mg active ingredient per ml; inoculated after 24 hours; 6 days incubation; controls all overgrown
# Description: Tomato plants (variety "First in Field", 3 weeks old) were treated with a liquid suspension containing 0.035 mg active ingredient per ml. The plants were kept 24 hours in a green house to dry before they were inoculated with a spore suspension containing 10^5 Botrytis cinerea spores per ml in 25% grapefruit juice. […] Control plants that were treated as above except for the application of the active ingredient in suspension were all overgrown with Botrytis cinerea.
# Basidiornycetous species = test: Fungicidal activity, mycelial growth on potato dextrose agar; format: cell-based, Basidiornycetes; conditions: 25 to 0.0016 μg a.i. per ml agar
# Description: as §1, §2, §3
# Monilinia fructigena = test: Activity against Monilinia fructigena on apples (Golden Delicious); format: in vivo; conditions: for number of infected wounds (maximum 20): 5 days, 0 mg ai/l gives 20
# Description: Apples were surface sterilized, each punctured 5 times with a nail 2.1 mm in diameter, dipped in suspensions containing 0, 0.5, 5, 50, and 500 mg a.i. per 1. The active ingredient was (i) BK 202, (ii) benomyI(BENLATE®), (iii) iprodione(ROVRAL®). Four apples were punctured and treated with each concentration of the three pesticides giving a total of 20 wounds per concentration. The fruits were placed in plastic containers in rows with the wounds facing upwards. After 24 hours, the wounded areas were sprayed with a suspension of Monilinia fructigena containing 1×10^5 spores per ml. The containers were then covered with polyethylene bags and kept at room temperature (approximately22° C.).
# After 5 days the effects were assessed by counting the number of infected wounds (maximum 20 infected wounds per treatment).
# M. fructigena = test: Fungicidal activity, mycelial growth on potato dextrose agar; format: cell-based, Monilinia fructigena; conditions: in as low concentrations as 0.0016 μg/ml, 3 to 6 days
# Description: as §1, §2, §3
# A. alternata = test: as above; format: cell-based, Alternaria alternata; conditions: 25 to 0.0016 μg a.i. per ml agar, 3 to 6 days
# Description: as §1, §2, §3
# plants = test: Phytotoxic activity on plants; format: in vivo; conditions: at the concentrations used in Examples 1 to 7
# [2] = test system: Botrytis cinerea isolate A (resistant to BENLATE®); test: In vitro agar growth assay, fungicide resistant Botrytis cinerea; format: cell-based; conditions: 3 days, 25 C, control 76
# Description: (§4) Activity against fungicide resistant Botrytis cinerea isolates One isolate resistant to BENLATE® (isolate A), and one isolate resistant to BENLATE®,ROVRAL® and SUMISCLEX® (isolate B) were isolated from plants which had been sprayed with the above mentioned pesticides. The effect of BK 202 on these isolates was determined in an in vitro assay and compared with the three commercial pesticides. The fungicides were added to agar and dispensed in petri dishes at different concentrations and were inoculated with a sensitive (normal(isolate C)) and the two resistant strains. After 3 days at a temperature of 25 C growth was measured in mm.
# [3] = test system: Botrytis cinerea isolate B (resistant to BENLATE®, ROVRAL® and SUMISCLEX®); test: as above; format: cell-based; conditions: 3 days, 25 C, control 80
# Description: as §4
# Botrytis cinerea [4] = test: Green house trial, Botrytis cinerea on tomatoes (Matador); format: in vivo; conditions: at all the tested concentrations 0.01%, 0.03%, and 0.09% a.i.
# Excerpt: Green house trial performed in Lyngby, Denmark.
# A plot consisted of 7 plants (approximately 12 weeks old, 1 m high) and three replicates were used. The plants were kept in a plastic "tent" to maintain a high humidity. Before spraying the plants 20 leaves per plant were mechanically injured to improve the attack of Botrytis cinerea. The active compound was used in a test formulation containing approximately 10% active ingredient (a.i.). Three concentrations of active compound were applied: 0.01%, 0.03%, and 0.09% a.i. The water volume was 770 ml/plot.
# The tomatoes were sprayed just after wounding the leaves. 24 hours after fungicide treatment an artificial inoculation was done by spraying spores of B. cinerea suspended in 30% orange juice on the plants.
# The commercial fungicide RONILAN®was used as standard reference.
# The assessment was performed by counting the number of attacks on leaves, stalks, fruits, and flower buds.
# Toxicology IC50, ATP = conditions: estimated
# Description: Based on these tests the IC50 values for BK 202 were estimated as: ATP >10 μg/ml;
# F. lycopersici = test: Fungicidal activity, mycelial growth on potato dextrose agar; format: cell-based, Fusarium lycopersici; conditions: 25 to 0.0016 μg a.i. per ml agar, 3 to 6 days
# Description: as §1, §2, §3
# [5] = concentration 0.125 (unit not given)
# [6] = concentration 2 (unit not given)
# [7] = concentration 10 (unit not given)
compound,measurement,setting,value
"CC[C@H](C)[C@H]1C(=O)NCC(=O)N(C)[C@@H](C(C)C)C(=O)N[C@@H](Cc2ccc(OC)cc2)C(=O)O[C@H](C)C(=O)N2CCCC[C@H]2C(=O)N(C)[C@@H](C(C)C)C(=O)N[C@@H](C(C)C)C(=O)N(C)[C@@H](CC(=O)O)C(=O)N(C)[C@@H](C(C)C)C(=O)N1C [BK 202, cyclo- Pec-MeVal-Val-MeAsp-MeVal-MeIle-Gly-MeVal-TyrOMe-D-Lact!] (cyclo(G[NMeV]Y(Me)[dLac][Pip][NMeV]V[NMeD][NMeV][NMeI]))",inhibition of growth,B. cinerea,very strong
same,attack from the fungus on tomato plants,Botrytis cinerea [1],No attack from the fungus was observed
same,fungicidal activity,Basidiornycetous species,practically no activity
same,number of infected wounds (maximum 20),Monilinia fructigena; 0.5 mg ai/l dip,18
same,number of infected wounds (maximum 20),Monilinia fructigena; 5.0 mg ai/l dip,14
same,number of infected wounds (maximum 20),Monilinia fructigena; 50 mg ai/l dip,7
same,number of infected wounds (maximum 20),Monilinia fructigena; 500 mg ai/l dip,1
same,activity towards M. fructigena in comparison to the two commercial fungicides tested,Monilinia fructigena; versus BENLATE® and ROVRAL®,superior
same,inhibition of growth,M. fructigena,very strong
same,inhibition of growth,A. alternata,weaker
same,phytotoxic activity,plants,no phytotoxic activity has been observed
same,"growth, Isolate A",[2]; [5],0 mm
same,"growth, Isolate A",[2]; [6],0 mm
same,"growth, Isolate A",[2]; [7],0 mm
same,"growth, Isolate B",[3]; [5],0 mm
same,"growth, Isolate B",[3]; [6],0 mm
same,"growth, Isolate B",[3]; [7],0 mm
same,"fungicidal effect (degree of infection, FIG. 10) compared to RONILAN®",Botrytis cinerea [4],superior
same,"IC50, ATP","Toxicology IC50, ATP",> 10 µg/mL
same,inhibition of growth,F. lycopersici,weaker
